Test results as given in patent publication US5250542A, “Peripherally selective piperidine carboxylate opioid antagonists” (Eli Lilly and Company, priority 1992, dated 1993).
Where a name gives a salt, the structure may show the parent alone. Read-outs that look alike come from different tables or passages of the source.

Assays:
[1] = target: T1, mu receptor (Rattus norvegicus, UniProt P33535); assay: opioid receptor binding assay, [3H] NAL (tritiated naloxone), mu receptor; parameters: species or system rat (Male Sprague Dawley), brain minus cerebellum
T1 construct: rat whole brain minus cerebellum for mu was homogenized; from tissue; host or cells: brain of male Sprague Dawley rats, whole brain minus cerebellum, homogenate fraction
Description: This assay was conducted by the following procedure.
Male Sprague Dawley rats for mu site experiments were sacrificed via decapitation and the brains were removed. The brain tissue, rat whole brain minus cerebellum for mu was homogenized in a Teflon and glass tissue homogenizer. A supernatant I, pellet IV, fraction was frozen in a nitrogen freezer at 1.33 g/ml concentration and stored for not longer than five weeks prior to use. Pellets were rehydrated with physiological buffer prior to use.
The reaction was initiated by the addition of the resuspended tissue which had been preincubated at 37° C. for 20 minutes. The reaction mixture was incubated in a 37° C. water bath for 20 minutes. The reaction was terminated by rapid filtration, (Brandel Cell Harvestor), through Whatman GF/B glass filters that had been presoaked in Krebs-Hepes buffer pH 7.4. The filters were then washed 2x with 5 ml of ice cold Krebs-Hepes buffer pH 7.4. Washed filters were placed in scintillation vials and 10 ml RedySolv, (Brandel), was added and samples counted in a Searle D-300 beta counter. Means and standard error statistics were calculated for triplicate experimental determinations in certain cases. The incubation time for the reaction mixture was 20 minutes at 37° C.
Ki values were calculated using a minitab statistical program according to the following formula: [formula] wherein IC50 is the concentration at which 50% of the ^3 H ligand is displaced by the test compounds and KD is the dissociation constant for the ^3 H ligand at the receptor site. KD can be determined as described by Bennett, "Methods in Binding Studies", Neurotransmitter Receptor Binding, Yamamura, et al., ed., p. 57-90, Raven Press, N.Y. (1978) incorporated herein by reference.
In the Table, column 1 sets forth the Example Number of the compound evaluated, column 2 the Ki value in nanomolar (nM) at the mu receptor and columns 3 and 4 the percent displacement by the test compound at the indicated concentration, i.e., 10 nm or 100 nm.

[2] = target: T2, peripheral opioid receptors (Mus musculus, UniProt P42866); assay: precipitated diarrhea in morphine-maintained mice (peripheral opioid activity) and comparison with the writhing test; type: in vivo; parameters: ED50 (diarrhea): unit not given beside the values; details: for Ratio (AD50 mouse writhing test / ED50 mouse diarrhea test): higher ratio = greater relative antagonism of peripheral opioid receptors; for ED50: mouse, 0.5 h; for ED50 / ED50 (diarrhea): morphine-maintained mice, antagonist subcutaneous or oral, 30 min observation; for ED50 (diarrhea): 30 min
T2 construct: Mice maintained (6 mice/cage) on 0.01M saccharin water with 1 g/1 morphine sulfate; from tissue; host or cells: living morphine-maintained mice (in vivo test; endogenous receptor)
Description: Determinations of peripheral opioid activity were conducted. Mice maintained (6 mice/cage) on 0.01M saccharin water with 1 g/1 morphine sulfate for a minimum of 10 days with mice averaging 3.0^+ g water/mouse/day for at least three days are used as subjects. The morphine water was removed 45 min. prior to injection with the proposed opioid antagonist. Initial testing consisted of 5 mice/dose of compound. The antagonist was given by the subcutaneous or oral, route of administration,and the mice were placed in 11-14"×4 7/12 I.D. clear plastic cylinders with white paper towels used for a floor.
The mice were then monitored visually for 30 minutes post-injection for the presence of jumping and of diarrhea. Jumping was scored as positive if at least one jump occurred in 30 min. Diarrhea was scored as positive when feces were moist enough to stain the white paper at the base of the cylinder. After 30 minutes of testing, the mice were placed back in original cages, put back on morphine water, and not tested again for 48 hrs. Lower doses of the antagonist compounds were tested until threshold doses for diarrhea were determined. Diarrhea is a peripherally mediated sign of precipitated opiate abstinence.
The extent of the effect on peripheral activity compared to central activity of the present compounds can-be determined by comparing the AD50 for the mouse writhing test with the ED50 for the mouse diarrhea test. The higher the ratio, the greater the relative antagonism of the peripheral opioid receptors by a particular compound.

[3] = target: T3, opioid receptor (Mus musculus, UniProt P42866); assay: mouse writhing analgesis test: block of morphine-induced analgesia; type: in vivo, CF-1 male mice; parameters: unit not given here; details: dose of antagonist that reduced the inhibition of writhing produced by 1.25 mg/kg morphine sulfate to 50%, subcutaneous, 20 min before acetic acid
T3 construct: Five CF-1 male mice (Charles River, Portage, Mich.); from tissue; host or cells: living CF-1 male mice (in vivo test; endogenous receptor)
Description: In order to determine in vivo opioid receptor antagonism, the mouse writhing analgesis test was used. Test compounds were measured for their ability to block morphine-induced analgesia.
Five CF-1 male mice (Charles River, Portage, Mich.), weighing approximately 20 g after being fasted overnight, were observed simultaneously for the writhing response. The writhing response was defined as a contraction of the abdominal musculature, followed by the extension of the hind limbs, and was induced by the intraperitoneal adminstration of 0.6% acetic acid in a volumne of 1 ml/100 g body weight. The observation period was 10 min. in duration, beginning 5 min. after injection of acetic acid. The percent inhibition of writhing was calculated from the average number of writhes in the control (non-drug) group. Each data point is the mean (±standarderror) for five mice. The ED50 was defined as the dose of agonist that inhibited mean writhing by 50%. […] Each mouse was only used once. All drugs were administered subcutaneously (1 ml/100 g bwt) 20 min. before the injection of acetic acid.

[4] = 20 min, read-out: % displacement at 10 nM
[5] = 20 min, read-out: % displacement at 100 nM
[6] = 20 min, read-out: % displacement at 10 nM, 10 nM test compound, [3H] naloxone 0.5 nM
[7] = 20 min, read-out: % displacement at 100 nM, 100 nM test compound, [3H] naloxone 0.5 nM
[8] = [3H] naloxone 0.5 nM, pH 7.4, 37° C., 20 min

T1 sequence (P33535 whole entry): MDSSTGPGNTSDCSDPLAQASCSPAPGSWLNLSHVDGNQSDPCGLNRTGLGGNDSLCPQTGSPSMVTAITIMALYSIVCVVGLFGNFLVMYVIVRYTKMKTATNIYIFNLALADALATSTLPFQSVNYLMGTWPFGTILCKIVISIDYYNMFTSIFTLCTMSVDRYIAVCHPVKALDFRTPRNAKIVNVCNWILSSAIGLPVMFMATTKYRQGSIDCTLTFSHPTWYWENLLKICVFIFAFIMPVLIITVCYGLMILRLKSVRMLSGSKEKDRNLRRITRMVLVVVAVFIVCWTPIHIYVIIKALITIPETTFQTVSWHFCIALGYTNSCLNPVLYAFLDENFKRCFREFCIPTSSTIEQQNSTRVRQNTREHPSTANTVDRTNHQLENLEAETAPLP
T3 sequence (P42866 whole entry): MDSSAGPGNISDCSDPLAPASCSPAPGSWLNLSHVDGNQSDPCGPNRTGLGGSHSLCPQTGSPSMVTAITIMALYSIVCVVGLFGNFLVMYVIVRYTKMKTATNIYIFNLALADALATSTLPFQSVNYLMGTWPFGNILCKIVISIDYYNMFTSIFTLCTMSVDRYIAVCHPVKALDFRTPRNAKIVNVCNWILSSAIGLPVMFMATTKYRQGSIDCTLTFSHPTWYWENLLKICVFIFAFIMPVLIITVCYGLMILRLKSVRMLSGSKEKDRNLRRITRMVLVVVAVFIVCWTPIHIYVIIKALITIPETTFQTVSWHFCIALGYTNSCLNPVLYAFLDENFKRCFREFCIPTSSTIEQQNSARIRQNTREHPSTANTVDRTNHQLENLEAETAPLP
T2 sequence (P42866 whole entry): as above

SMILES	Ki [1]	Ratio (AD50 mouse writhing test / ED50 mouse diarrhea test) [2]	ED50 [2]	AD50 [3]	inhibition at 0.01 µM [1, 6]	inhibition at 0.1 µM [1, 7]	Ki [1, 8]	also measured
CCOC(=O)C(Cc1ccccc1)CN1CC[C@@](C)(c2cccc(O)c2)[C@@H](C)C1 (relative stereo) [Example 4A, trans-4-(3-hydroxyphenyl)-3,4-dimethyl-a-(phenylmethyl)-1-piperidinepropanoic acid, ethyl ester hydrochloride]	1.38 nM	9	0.012 mg/kg	1.08				inhibition at 0.01 µM [1, 4]: 92%; inhibition at 0.1 µM [1, 5]: 98%
C[C@H]1CN(CC(Cc2ccccc2)C(=O)O)CC[C@@]1(C)c1cccc(O)c1 (relative stereo) [Example 4B, 4-(3-hydroxyphenyl)-3,4-dimethyl-a-(phenylmethyl)-1-piperidinepropanoic acid monohydrate]	2.62 nM	809	0.011 mg/kg	8.90				inhibition at 0.01 µM [1, 4]: 83%; inhibition at 0.1 µM [1, 5]: 97%
CCOC(=O)C(CC1CCCCC1)CN1CC[C@@](C)(c2cccc(O)c2)[C@@H](C)C1 (relative stereo) [Example 5A, 3-(3,4-dimethyl-4-(3-hydroxyphenyl)-1-piperidinyl]-2-(cyclohexylmethyl)propanoic acid ethyl ester hydrochloride]	13.8 nM	20	0.06 mg/kg	1.2	61%	93%		
C[C@H]1CN(CC(CC2CCCCC2)C(=O)O)CC[C@@]1(C)c1cccc(O)c1 (relative stereo) [Example 5B, 3-[3,4-dimethyl-4-(3-hydroxyphenyl)-1-piperidinyl]-2-(cyclohexylmethyl)-propanoic acid monohydrate]	1.11 nM	7	0.24 mg/kg	1.6	93%	99%		
CCOC(=O)C(CCN1CC[C@@](C)(c2cccc(O)c2)[C@@H](C)C1)c1ccccc1 (relative stereo) [Example 8A, trans-4-[(3-Hydroxyphenyl)-3,4-dimethyl-1-piperidine]-2-phenyl butanoic acid, ethyl ester hydrochloride]		35	0.02 mg/kg	0.70	88%	95%	2.01 nM	
C[C@H]1CN(CCC(C(=O)O)c2ccccc2)CC[C@@]1(C)c1cccc(O)c1 (relative stereo) [Example 8B, trans-4-[(3-Hydroxyphenyl)-3,4-dimethyl-1-piperidine]-2-phenyl butanoic acid hydrochloride]		53	0.012 mg/kg	0.64	100%	100%	0.27 nM	
C[C@H]1CN(CCC(C(=O)O)C2CCCCC2)CC[C@@]1(C)c1cccc(O)c1 (relative stereo) [Example 9B, hydrochloride]	0.66 nM	75	0.02 mg/kg	1.50	90%	93%		
C[C@H]1CN(CCC(C(=O)N(C)C)c2ccccc2)CC[C@@]1(C)c1cccc(O)c1 (relative stereo) [Example 10, trans-4-[(3-hydroxyphenyl)-3,4-dimethyl-1-piperidinyl]-2-phenyl-N,N-dimethylbutanamide hydrochloride]	1.17 nM	9	0.06 mg/kg	0.54	89%	100%		
CNC(=O)CNC(=O)C(CCN1CC[C@@](C)(c2cccc(O)c2)[C@@H](C)C1)c1ccccc1 (relative stereo) [Example 13, N-(methyl)-2-[[4-[4-(3-hydroxyphenyl)-3,4-dimethyl-1-piperidinyl]-2-phenyl-1-oxobutyl]amino]acetamide monohydrochloride]		> 125	0.32 mg/kg		94%	95%	0.43 nM	
C[C@H]1CN(CCC(C(=O)NCC(N)=O)c2ccccc2)CC[C@@]1(C)c1cccc(O)c1 (relative stereo) [Example 14, trans-N-(2-amino-2-oxoethyl)-4-[3,4-dimethyl-4-(3-hydroxyphenyl)-1-piperidinyl]-2-phenylbutanamide monohydrochloride monohydrate]	6.42 nM	> 43	0.92 mg/kg			93%		inhibition at 0.01 µM [1, 4]: 87%
CC(C)COC(=O)CNC(=O)C(Cc1ccccc1)CN1CC[C@@](C)(c2cccc(O)c2)[C@@H](C)C1 (single isomer, unassigned) [Example 97D]								Ratio (AD50 mouse writhing test / ED50 mouse diarrhea test) ([2]; listed as 97D*): 317; Ratio (AD50 mouse writhing test / ED50 mouse diarrhea test) ([2]; listed as 97D**): 53; ED50 (diarrhea) ([2]; listed as 97D**): 0.6; ED50 (diarrhea) ([2]; listed as 97D*): 0.04; AD50 ([3]; listed as 97D**, 1.25 mg/kg): 32; AD50 ([3]; listed as 97D*, 1.25 mg/kg): 12.7
C[C@H]1CN(CC(Cc2ccccc2)C(=O)NCC(=O)OC2CCCCC2)CC[C@@]1(C)c1cccc(O)c1 (stereo partly shown) [Example 52, 2-[[2-(phenylmethyl)-1-oxo-3-[4-(3-hydroxyphenyl)-3,4-dimethyl-1-piperidinyl]propyl]amino]-ethanoic acid cyclohexyl ester monohydrochloride]		40	0.2 mg/kg					inhibition at 0.01 µM ([1]; 20 min, 10 nM test compound, [3H] naloxone 0.5 nM, read-out: % displacement at 10 nM): 53%; inhibition at 0.1 µM ([1]; 20 min, 100 nM test compound, [3H] naloxone 0.5 nM, read-out: % displacement at 100 nM): 92%
CCOC(=O)CCCNC(=O)C(Cc1ccccc1)CN1CC[C@@](C)(c2cccc(O)c2)[C@@H](C)C1 (stereo partly shown) [Example 61, 4-[[3-[4-(3-hydroxyphenyl)-3,4-dimethyl-1-piperidinyl]-1-oxo-2-(phenylmethyl)propyl]-amino]butanoic acid ethyl ester monohydrochloride monohydrate]		66	0.05 mg/kg		98%	99%	1.91 nM	
